Like-named read-outs stand apart in the source and are kept apart here.
How the values were obtained:
carrageenin oedema = carrageenin oedema test in the rat, oral administration; assay type: in vivo; details: rat, oral; for % change of increase of original volume, 1 h / % change of increase of original volume, 2 h / % change of increase of original volume, 3 h / % change of increase of original volume, 4 h / % change of increase of original volume, 5 h: vs controls
Experimental: (§1) The anti-inflammatory and analgesic activity of compound Ib was tested after oral administration in the carrageenin oedema test in the rat (C. A. Winter et al. Proc. Soc. Exp. Biol. Med., 111, 544, 1962), in the phenylquinone writhing test (I. C. Hendershot and J. J. Forsaith, Pharmacol. Exp. Ther., 125, 237, 1959) and in the hot plate test on the mouse (N. B. Eddy and D. J. Leimbach, J. Pharmacol. Exp. Ther., 107, 385, 1953). The activity of the compound was compared with equimolecular doses of sodium meclofenamate. A comparison was also made between the acute toxicity of the two substances by measuring the oral LD 50 on the rat.
The substances under test, dissolved in distilled water, were administered by a stomach probe 1 hour before subplantar injection of carrageenin (1% in sterile 0.9% NaCl aqueous solution). […]

[1] = system: writhing induced by phenylquinone; test: phenylquinone writhing test, oral administration; assay type: in vivo, mouse; details: oral
Experimental: as §1
The substances under test were administered by a stomach probe 1 hour before intraperitoneal injection of phenylquinone (2 mg/kg). The abdominal contractions of the treated animals and the controls were counted during every 10 minutes for half an hour.

[2] = system: reaction time to heat (hot plate); assay type: in vivo, mouse; details: oral; for Percentages of mice protected at 30 minutes / Percentages of mice protected at 60 minutes: reaction time 15 seconds or more, 55° C.
Experimental: as §1
The substances under test were administered by a stomach probe to preselected mice. The controls and the treated animals were placed on the hot plate (55° C.) one at a time immediately after treatment. The reaction time to heat, was measured 30 and 60 minutes after treatment. Animals were considered protected when the reaction time was 15 seconds or more.

[3] = acute toxicity on the rat, oral LD50; assay type: in vivo; details: rat, in vivo, po
Experimental: as §1
(§2) The two LD 50 values were calculated by the probit method.

rat = test: acute toxicity on the rat, oral LD50; assay type: in vivo; details: oral LD50, probit method
Experimental: as §1, §2

arachidonic acid oedema = arachidonic acid oedema in the rat, oral administration; assay type: in vivo; details: for change of Increase of Original Volume (in parentheses), 60 min: vs controls
Experimental: (1) Arachidonic acid oedema in the rat (M. J. Di Martino, G. C. Campbell Jnr., C. E. Wolff and N. Hanna, Agents and Actions; 21, 303, 1987)
Compound Ib was administered by gastric probe one hour before subplantar injection of 0.1 ml of 0.5% arachidonic acid in carbonate buffer (pH 8-8.2).
The volume of the paws of the treated animals and of the control was measured with a plethysmometer immediately and 60 minutes after the irritating agent (peak time of oedema).

[4] = system: 6-day old air pouch irritated by carrageenan; test: irritation of 6-day old air pouch by carrageenan in the rat; assay type: in vivo; details: os
Experimental: (2) Irritation of 6-day old air pouch by carrageenan in the rat (A. D. Sedgwick, Y. M. Sin, A. R. Mackay, A. Al-Duaij and D. A. Willoughby; J. Pharm. Pharmacol.; 36, 171, 1984).
The formation of a dorsal pouch was induced in the rat by dorsal subcutaneous administration of 20 ml of air. 10 ml of air were then injected every day for three consecutive days in order to keep the cavity permeable. Six days after the first injection of air, the dorsal pouch in the animals was treated with 1 ml of 1% carrageenan in physiological solution.
Compound Ib was administered by gastric probe, 24 hours and 1 hour before administration of the irritating agent.
The animals, dividedinto groups of five, were killed 4 hours and 24 hours after the carrageenan. The volume of the exudate and the total number of leucocytes were measured.

pH of aqueous solution = assay type: physicochemical; details: 1% aqueous solution (Ib)
[5] = dose corresponding to 10 mg/kg meclofenamic acid (Ib 12.7 mg/kg; sodium meclofenamate 11.0 mg/kg)
[6] = dose corresponding to 10 mg/kg meclofenamic acid
[7] = dose corresponding to 20 mg/kg meclofenamic acid (Ib 25,4 mg/kg; sodium meclofenamate 22,0 mg/kg), **P < 0.01 vs controls
[8] = dose corresponding to 20 mg/kg meclofenamic acid
[9] = Ib 12.7 mg/kg, sodium meclofenamate 11.0 mg/kg
[10] = Ib 25.4 mg/kg, sodium meclofenamate 22.0 mg/kg
[11] = dose corresponding to 10 mg/kg meclofenamic acid (Ib 12.7 mg/kg; sodium meclofenamate 11.0 mg/kg), **P < 0.01 vs controls
[12] = dose corresponding to 20 mg/kg meclofenamic acid (Ib 25.4 mg/kg; sodium meclofenamate 22.0 mg/kg), **P < 0.01 vs controls
[13] = Ib 12.7 mg/kg, sodium meclofenamate 11 mg/kg
[14] = Ib 25.4 mg/kg, sodium meclofenamate 22 mg/kg
[15] = Ib 31.75 mg/kg × 2 (**P < 0.01), sodium meclofenamate 27.5 mg/kg × 2 (*P < 0.05 vs controls), 24 h
[16] = Ib 31.75 mg/kg × 2, sodium meclofenamate 27.5 mg/kg × 2, 4 h, vs controls
[17] = Ib 31.75 mg/kg × 2, sodium meclofenamate 27.5 mg/kg × 2, 24 h, vs controls

Cc1ccc(Cl)c(Nc2ccccc2C(=O)O)c1Cl [Sodium meclofenamate, sodium meclofenamate, reference compound]
Increase of original volume (m ± s.e.), 1 h (carrageenin oedema; [5]): 0.41 ± 0.05 mL
Increase of original volume (m ± s.e.), 2 h (carrageenin oedema; [5]): 0.87 ± 0.10 mL
Increase of original volume (m ± s.e.), 3 h (carrageenin oedema; [5]): 1.42 ± 0.10 mL
Increase of original volume (m ± s.e.), 4 h (carrageenin oedema; [5]): 1.12 ± 0.07 mL
Increase of original volume (m ± s.e.), 5 h (carrageenin oedema; [5]): 1.39 ± 0.08 mL
% change of increase of original volume, 1 h (carrageenin oedema; [6]): -13%
% change of increase of original volume, 2 h (carrageenin oedema; [6]): -8%
% change of increase of original volume, 3 h (carrageenin oedema; [6]): -7%
% change of increase of original volume, 4 h (carrageenin oedema; [6]): -6%
% change of increase of original volume, 5 h (carrageenin oedema; [6]): -10%
Increase of original volume (m ± s.e.), 1 h (carrageenin oedema; dose corresponding to 20 mg/kg meclofenamic acid (Ib 25,4 mg/kg; sodium meclofenamate 22,0 mg/kg)): 0.36 ± 0.05 mL
Increase of original volume (m ± s.e.), 2 h (carrageenin oedema; dose corresponding to 20 mg/kg meclofenamic acid (Ib 25,4 mg/kg; sodium meclofenamate 22,0 mg/kg), *P < 0.05): 0.65 ± 0.05 mL
Increase of original volume (m ± s.e.), 3 h (carrageenin oedema; [7]): 0.77 ± 0.07 mL
Increase of original volume (m ± s.e.), 4 h (carrageenin oedema; [7]): 1.07 ± 0.09 mL
Increase of original volume (m ± s.e.), 5 h (carrageenin oedema; [7]): 1.24 ± 0.07 mL
% change of increase of original volume, 1 h (carrageenin oedema; [8]): -20%
% change of increase of original volume, 2 h (carrageenin oedema; [8]): -32%
% change of increase of original volume, 3 h (carrageenin oedema; [8]): -43%
% change of increase of original volume, 4 h (carrageenin oedema; [8]): -33%
% change of increase of original volume, 5 h (carrageenin oedema; [8]): -25%
anti-inflammatory activity compared with reference (in words) (carrageenin oedema; vs sodium meclofenamate): behaved in similar manner
minimal effective dose (carrageenin oedema; read-out: dose at which antagonism of the oedema is statistically significant): 68 µmol/kg
% Protection, 0-10 minutes [1, 9]: 52%
% Protection, 10-20 minutes [1, 9]: 20%
% Protection, 20-30 minutes [1, 9]: 40%
% Protection, total [1, 9]: 43%
% Protection, 0-10 minutes [1, 10]: 60%
% Protection, 10-20 minutes [1, 10]: 33%
% Protection, 20-30 minutes [1, 10]: 46%
% Protection, total [1, 10]: 53%
Writhing (m ± s.e.) during 10-20 minutes [1, 5]: 16.5 ± 1.0
Writhing (m ± s.e.) during 20-30 minutes [1, 5]: 8.6 ± 0.4
Writhing (m ± s.e.) during 0-10 minutes [1, 11]: 12.0 ± 1.6
Writhing (m ± s.e.), total minutes [1, 11]: 34.2 ± 1.5
Writhing (m ± s.e.) during 10-20 minutes ([1]; dose corresponding to 20 mg/kg meclofenamic acid (Ib 25.4 mg/kg; sodium meclofenamate 22.0 mg/kg)): 13.7 ± 1.5
Writhing (m ± s.e.) during 0-10 minutes [1, 12]: 10.0 ± 1.1
Writhing (m ± s.e.) during 20-30 minutes [1, 12]: 7.7 ± 0.8
Writhing (m ± s.e.), total minutes [1, 12]: 28.0 ± 2.9
activity in the hot plate test (in words) ([2]; mouse): inactive
Percentages of mice protected at 30 minutes [2, 13]: 0%
Percentages of mice protected at 60 minutes [2, 13]: 0%
Percentages of mice protected at 30 minutes [2, 14]: 0%
Percentages of mice protected at 60 minutes [2, 14]: 0%
LD50 at 480 h ([3]; male and female rats, 20 days of observation, probit method, read-out: DL50): 127 mg/kg
LD50 at 480 h ([3]; mg/kg meclofenamic acid, read-out: LD50 as corresponding meclofenamic acid): 119 mg/kg
Slope (rat): 7.402 ± 2.014
change of Increase of Original Volume (in parentheses), 60 min (arachidonic acid oedema; [13]): -6
change of Increase of Original Volume (in parentheses), 60 min (arachidonic acid oedema; Ib 38.1 mg/kg, sodium meclofenamate 33 mg/kg): -29
Increase of Original Volume (m ± s.e.), 60 min (arachidonic acid oedema; dose corresponding to 10 mg/kg meclofenamic acid (Ib 12.7 mg/kg; sodium meclofenamate 11 mg/kg)): 0.58 ± 0.05
Increase of Original Volume (m ± s.e.), 60 min (arachidonic acid oedema; dose corresponding to 30 mg/kg meclofenamic acid (Ib 38.1 mg/kg, **P < 0.01; sodium meclofenamate 33 mg/kg, *P < 0.05 vs controls)): 0.44 ± 0.06
statistically significant dose as fraction of the LD50 (arachidonic acid oedema; rat, oedema reduced in statistically significant manner): 1/4
Leucocytes (m ± s.e.), 24 h [4, 15]: 40.14 ± 11.99 × 10^6
Volume of exudate (m ± s.e.), 24 h [4, 15]: 0.52 ± 0.12 mL
Leucocytes (m ± s.e.), 4 h ([4]; Ib 31.75 mg/kg × 2 (*P < 0.05 vs controls), sodium meclofenamate 27.5 mg/kg × 2, 4 h): 4.36 ± 1.76 × 10^6
change of leucocytes (in parentheses), 4 h [4, 16]: -2
change of volume of exudate (in parentheses), 4 h [4, 16]: -6
change of leucocytes (in parentheses), 24 h [4, 17]: -52
change of volume of exudate (in parentheses), 24 h [4, 17]: -42
Volume of exudate (m ± s.e.), 4 h ([4]; dose corresponding to 25 mg/kg meclofenamic acid × 2 (Ib 31.75; sodium meclofenamate 27.5 mg/kg), 4 h): 0.30 ± 0.05 mL
pH of aqueous solution (in words) (pH of aqueous solution): markedly alkaline pH

Source: patent US4879311A, “Derivatives of benzoyloxyacetic acid, and preparation and formulations thereof for therapeutic use” (Inverni della Beffa S.p.A., priority 1987, dated 1989)
